Measured values from ChEMBL document CHEMBL2384955, “Structure-activity relationships in aminosterol antibiotics: the effect of stereochemistry at the 7-OH group” (2013).
Calls of active or inactive are those of the source. The rule behind the calls is not given here.

Columns and labels:
Lipid bilayer [1] = test: Binding affinity to DOPC/DOPG large unilamellar vesicle assessed as release of calcein at 1 mg/mL measured for 1 min by spectrophotometric analysis
Lipid bilayer [2] = test: Binding affinity to zwitterionic DOPC large unilamellar vesicle assessed as release of calcein at 1 mg/mL measured for 1 min by spectrophotometric analysis relative to control
Staphylococcus aureus = test: Antibacterial activity against Staphylococcus aureus ATCC 29213 assessed as cell viability after 24 hrs by resazurin-based microplate assay; format: functional; settings: ATCC 29213, 24 h
Pseudomonas aeruginosa = test: Antibacterial activity against Pseudomonas aeruginosa ATCC 27853 assessed as growth inhibition assessed as cell viability after 24 hrs by resazurin-based microplate assay; format: functional; settings: ATCC 27853, 24 h
Lipid bilayer [3] = test: Binding affinity to DOPG large unilamellar vesicle assessed as release of calcein at 1 mg/mL measured for 1 min by spectrophotometric analysis
Enterococcus faecalis = test: Antibacterial activity against Enterococcus faecalis ATCC 29212 assessed as growth inhibition assessed as cell viability after 24 hrs by resazurin-based microplate assay; format: functional; settings: ATCC 29212, 24 h
Escherichia coli = test: Antibacterial activity against Escherichia coli ATCC 25922 assessed as growth inhibition assessed as cell viability after 24 hrs by resazurin-based microplate assay; format: functional; settings: ATCC 25922, 24 h

What does the source list for `CC(C)[C@@H](CC[C@@H](C)[C@H]1CC[C@H]2[C@@H]3[C@H](O)C[C@H]4C[C@@H](NCCCNCCCCNCCCN)CC[C@]4(C)[C@H]3CC[C@]12C)OS(=O)(=O)O.Cl`?
Activity (Lipid bilayer [1]): Active; Activity (Lipid bilayer [2]): 50%; MIC (Staphylococcus aureus): 4 mg/L; MIC (Pseudomonas aeruginosa): 8 mg/L; Activity (Lipid bilayer [3]): Active; MIC (Enterococcus faecalis): 32 mg/L; MIC (Escherichia coli): 2 mg/L

Which Activity (Lipid bilayer [1]) does the source give for `CC(C)[C@@H](CC[C@@H](C)[C@H]1CC[C@H]2[C@@H]3[C@@H](O)C[C@H]4C[C@@H](NCCCNCCCCNCCCN)CC[C@]4(C)[C@H]3CC[C@]12C)OS(=O)(=O)O.O=C(O)C(F)(F)F` here?
The Activity was “inactive”.

What about the Activity (Lipid bilayer [2]) of the same compound?
The Activity was 50%.

What about the MIC (Staphylococcus aureus) of the same compound?
Its MIC is 8 mg/L.

And the MIC (Pseudomonas aeruginosa)?
The MIC was 32 mg/L.

And the Activity (Lipid bilayer [3])?
Its Activity is “Active”.

And the MIC (Enterococcus faecalis)?
The MIC was 16 mg/L.

And the MIC (Escherichia coli)?
The MIC was 1 mg/L.

For `CC(C)[C@@H](CC[C@@H](C)[C@H]1CC[C@H]2[C@@H]3[C@@H](O)C[C@H]4C[C@@H](NCCCNCCCCN)CC[C@]4(C)[C@H]3CC[C@]12C)OS(=O)(=O)O.O=C(O)C(F)(F)F`, which Activity (Lipid bilayer [1]) is on record?
The Activity was “inactive”.

And the Activity (Lipid bilayer [2])?
The Activity was “inactive”.

What about the MIC (Staphylococcus aureus) of the same compound?
Its MIC is 12 mg/L.

What about the MIC (Pseudomonas aeruginosa) of the same compound?
Its MIC is 24 mg/L.

What about the Activity (Lipid bilayer [3]) of the same compound?
The Activity was “inactive”.

What about the MIC (Enterococcus faecalis) of the same compound?
Its MIC is 12 mg/L.

What about the MIC (Escherichia coli) of the same compound?
Its MIC is 12 mg/L.

How did the Activity (Lipid bilayer [1]) turn out when `CC(C)[C@@H](CC[C@@H](C)[C@H]1CC[C@H]2[C@@H]3[C@H](O)C[C@H]4C[C@@H](NCCCNCCCCN)CC[C@]4(C)[C@H]3CC[C@]12C)OS(=O)(=O)O.CC(O)C(=O)O` was run?
The Activity was “Active”.

What about the Activity (Lipid bilayer [2]) of the same compound?
Its Activity is 50%.

What about the MIC (Staphylococcus aureus) of the same compound?
The MIC was 2 mg/L.

And the MIC (Pseudomonas aeruginosa)?
Its MIC is 4 mg/L.

And the Activity (Lipid bilayer [3])?
The Activity was “Active”.

What about the MIC (Enterococcus faecalis) of the same compound?
Its MIC is 2 mg/L.

And the MIC (Escherichia coli)?
Its MIC is 8 mg/L.
